From patent EP2830605B1, “A COMBINATION MEDICAMENT COMPRISING PHENYLEPHRINE AND PARACETAMOL” (priority 2013, dated 2014)
Counter-ions that a name gives are not always drawn. Like-named read-outs stand apart in the source and are kept apart here.

Assays:
[1] = in vivo
[2] = cited from earlier work

**Q.** Which results are given for `CNC[C@H](O)c1cccc(O)c1` [10 mg phenylephrine hydrochloride, phenylephrine hydrochloride]?
**A.** Ratio (increase of AUCtot), calculation for paracetamol 650 mg ([1]; human): ~1.73; dose of phenylephrine hydrochloride alone that is similar [1]: 16 to 20 mg; Adverse Event Rate ([2]; dose 10mg, hydrochloride): 12.5%; Adverse Event Rate ([2]; dose 10mg, listed as Phenylephrine HCL, hydrochloride): 12.5%; Adverse Event Rate ([2]; dose 15mg): 43.8%; Adverse Event Rate ([2]; dose 25mg): 81.3%
